Test results as given in patent US20070213505A1, “Solution Synthesis of Peptide Cell Growth Stimulators” (priority 2006, published 2007).
Peptide text beside a SMILES is read from it.

What was measured:
[1] = system: transfectoma cell line which is an SP2/0 derived line engineered to produce an anti-cytokine monoclonal antibody (mAb); assay: Effect of Gly-Lys-Gly on growth and productivity of a transfectoma cell line in MET1.5 shaker flask culture; format: cell-based; settings: for viable cell density: unsupplemented control 2.0×10^6
Description: Two preparations of the tri-peptide, Gly-L-Lys-Gly, were compared for their effect on growth and productivity of a transfectoma cell line which is an SP2/0 derived line engineered to produce an anti-cytokine monoclonal antibody (mAb). The final lot of GKG prepared in Example V was compared to commercial prepared GKG purchased from Bachem (King of Prussia, Pa.).
Cells were cultured in a proprietary defined medium, MET1.5, supplemented with 7.0 mM glutamine, 10 g/L MHX, and 2.0 g/L sodium bicarbonate. The Centocor-made GKG peptide in quantities of 0.35 g/L, 0.70 g/L, and 1.40 g/L were added to 250 mL of MET 1.5 media. The GKG from Bachem was added to 250 mL of MET 1.5 media at concentrations of 0.38 g/L, 0.76g/L, and 1.5 g/L. The cells were cultured in 125 mL shaker flasks and were rotating at 125 RPM. The culture was also incubated at 37° C. in a humidified atmosphere with 5% CO2 and 95% air. The culture volume was 40 mL. Two control flasks and two flasks per peptide concentration were sampled at days zero, one, two, three, four, five, and six for viable cell density and antibody determination.
The cultures were inoculated at a density of 2×10^5 cells/mL and were passaged three times (split every three days). On the third passage they were incubated until the decline phase.
Viable cells and dead cells were calculated by trypan exclusion with the Cedex cell counter. The mAb concentrations were determined by immunoturbidity via the IMMAGE 800 nephelometer (Beckman, Coulter, Brea, Calif.). The effects of the Gly-Lys-Gly peptide on antibody secretion by a production cell line was gauged by calculating integral viable density (IVCC), and titer. IVCC was calculated by integrating the areas under the growth curves. Specific antibody productivity was calculated as the antibody production per day (titer) divided by IVCC.

[2] = system: CHO line; assay: Effect of Gly-Lys-Gly on growth and productivity of a CHO line in chemically defined CHO medium; format: cell-based, Chinese Hamster; settings: CHO medium supplemented at the same concentrations as in the SP2/0 test; results not shown
Description: In a previous experiment, a proprietary chemically defined Chinese Hamster Ovary (CHO) medium was supplemented with both the Centocor and Bachem-made peptides at the same concentrations above.

NCCCC[C@H](NC(=O)CN)C(=O)NCC(=O)O [Centocor-made peptide, Glycyl-L-Lysyl-Glycine] (H-Gly-Lys-Gly-OH)
viable cell density ([1]; 0.35 g/L peptide in MET1.5, mean of two samples): 2.5×10^6 viable cells/mL | enhancement of the product yield or viable cell density ([1]; 0.7 g/L peptide in MET1.5): No enhancement | increase in titer (concentration of mAb) ([1]; 1.4 g/L peptide in MET1.5): 21% | viable cell density and percent viability increases ([1]; 1.4 g/L peptide in MET1.5): could not be observed | effect on growth and productivity [2]: minimal to no effect

Gly-L-Lys-Gly [Bachem-made-peptide]
viable cell density ([1]; 0.38 g/L peptide in MET1.5, mean of two samples): 2.6×10^6 viable cells/mL | titer ([1]; 0.76 g/L peptide in MET1.5, rose from 117 mg/L without supplement, mean of two samples): 137 mg/L | increase in titer (concentration of mAb) ([1]; 1.5 g/L peptide in MET1.5): 34% | viable cell density and percent viability increases ([1]; 1.5 g/L peptide in MET1.5): could not be observed | effect on growth and productivity [2]: minimal to no effect
